# In patent US20230203081A1, “LINCOSAMIDE ANTIBIOTICS AND USES THEREOF” (President and Fellows of Harvard College, priority 2020, published 2023):
# Like-named read-outs stand apart in the source and are kept apart here.
# Assays:
# Format in all cases: cell-based
# [1] = tested on: S. aureus cErmA; assay: MIC (broth microdilution or agar dilution, CLSI); settings: Staphylococcus aureus; S. aureus cErmA; read-out: MIC
# Summary of the method: (§1)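 Following CLSI guidelines, broth microdilution or agar dilution spans usually 128-0.06 μg/mL (2.5% DMSO final), triplicate runs, clindamycin comparator. Inocula for broth work are 5×10^5 CFU/mL in cation-adjusted Mueller-Hinton; anaerobic strains get specialized handling.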
# [2] = tested on: S. aureus MRSA; assay: MIC (broth microdilution or agar dilution, CLSI); settings: Staphylococcus aureus
# Summary of the method: as §1
# [3] = tested on: E. faecium Line R & VRE; assay: MIC (broth microdilution or agar dilution, CLSI); settings: Enterococcus faecium, E. faecium Line R & VRE, read-out: MIC
# Summary of the method: as §1
# [4] = tested on: E. faecium VRE; assay: MIC (broth microdilution or agar dilution, CLSI); settings: Enterococcus faecium; E. faecium VRE; read-out: MIC
# Summary of the method: as §1
# [5] = tested on: E. faecium Clinical VRE; assay: MIC (broth microdilution or agar dilution, CLSI); settings: Enterococcus faecium; E. faecium Clinical VRE; read-out: MIC
# Summary of the method: as §1
# [6] = tested on: P. aeruginosa ATCC 27853; assay: MIC (broth microdilution or agar dilution, CLSI); settings: Pseudomonas aeruginosa, ATCC27853; P. aeruginosa ATCC 27853; read-out: MIC
# Summary of the method: as §1
# [7] = tested on: E. coli armA; assay: microbe, parasite or virus in culture; settings: Escherichia coli, E. coli armA
# Summary of the method: (§2)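 Inoculum for broth microdilution was 5×10^5 CFU/mL final, prepared from overnight 35° C blood-agar subcultures (separate handling for streptococcal and anaerobic strains); MICs read by CLSI broth microdilution or agar dilution.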
# [8] = tested on: E. coli ΔTolC; assay: microbe, parasite or virus in culture; settings: Escherichia coli, E. coli ΔTolC
# Summary of the method: as §2
# [9] = tested on: E. faecalis VRE; assay: MIC (CLSI), first E. faecalis VRE line of Table 4; settings: Enterococcus faecalis; E. faecalis VRE (Table 4, first VRE line); read-out: MIC
# Description: (§3) Minimum inhibitory concentrations (MICs) were determined by broth microdilution method or agar dilution method following the Clinical and Laboratory Standards Institute guidelines. Standard bacterial strains were obtained from American Type Culture Collection (ATCC). Other bacterial strains were obtained from hospitals and commercial sources, so noted in Table 11. Before the start of the MIC experiment, standard and test compound stock solutions were prepared in dimethyl sulfoxide (DMSO, Aldrich D2650) at a stock concentration of 5,120 μg/mL. The compound concentration range typically employed for each experiment was 128-0.06 μg/mL (2.5% final DMSO concentration). Clindamycin was used as a comparator in all experiments and each experiment was performed in triplicate. Specialized procedures were employed for streptococcal and anaerobic strains. All other bacterial strains were sub-cultured on blood agar plates (tryptic soy agar with 5% sheep blood, Hardy Diagnostics) and incubated overnight at 35° C. Organisms were suspended in cation-adjusted Mueller-Hinton broth (CaMHB, BD 212322) and optical density was adjusted to 0.5 McFarland standard. Suspensions were further diluted to obtain a final inoculum of 5×10^5 CFU/mL for broth microdilution experiments.
# [10] = tested on: S. pneumoniae ATCC 6303; assay: MIC (broth microdilution or agar dilution, CLSI); settings: Streptococcus pneumoniae, ATCC6303; S. pneumoniae ATCC 6303; read-out: MIC
# Summary of the method: as §2
# [11] = tested on: S. pneumoniae MMX 3031 cMefA; assay: MIC (broth microdilution or agar dilution, CLSI); settings: S. pneumoniae MMX 3031 cMefA
# Summary of the method: as §2
# [12] = tested on: E. coli LptD; assay: MIC (broth microdilution or agar dilution, CLSI); settings: Escherichia coli, E. coli LptD; read-out: MIC
# Summary of the method: as §2
# [13] = tested on: S. pneumoniae MMX 3028 cErmB; assay: MIC (broth microdilution or agar dilution, CLSI); settings: S. pneumoniae MMX 3028 cErmB
# Summary of the method: as §2
# [14] = tested on: S. aureus hVISA; assay: MIC (broth microdilution or agar dilution, CLSI); settings: Staphylococcus aureus; S. aureus hVISA; read-out: MIC
# Summary of the method: as §2
# [15] = tested on: K. oxytoca Clinical; assay: MIC (broth microdilution or agar dilution, CLSI); settings: Klebsiella oxytoca; K. oxytoca Clinical; read-out: MIC
# Summary of the method: as §2
# [16] = tested on: S. aureus ATCC 29213; assay: MIC (broth microdilution or agar dilution, CLSI)
# Summary of the method: as §2
# [17] = tested on: E. faecalis MMX 847; cErmB; assay: MIC (broth microdilution or agar dilution, CLSI); settings: E. faecalis MMX 847, cErmB
# Summary of the method: as §2
# [18] = tested on: S. pneumoniae ATCC 49619; assay: MIC (broth microdilution or agar dilution, CLSI)
# Summary of the method: as §2
# [19] = tested on: S. aureus ATCC 700699; assay: MIC (broth microdilution or agar dilution, CLSI); settings: Staphylococcus aureus, ATCC700699; S. aureus ATCC 700699; read-out: MIC
# Summary of the method: as §2
# [20] = tested on: S. pyogenes MMX 946; cErmB; assay: MIC (broth microdilution or agar dilution, CLSI); settings: S. pyogenes MMX 946, cErmB
# Summary of the method: as §2
# [21] = tested on: E. coli ATCC 25922; assay: MIC (broth microdilution or agar dilution, CLSI); settings: E. coli ATCC 25922
# Summary of the method: as §2
# [22] = tested on: A. baumannii ATCC 19606; assay: MIC (broth microdilution or agar dilution, CLSI); settings: Acinetobacter baumannii, ATCC19606; A. baumannii ATCC 19606; read-out: MIC
# Summary of the method: as §2
# [23] = tested on: S. pyogenes ATCC 19615; assay: MIC (broth microdilution or agar dilution, CLSI)
# Summary of the method: as §2
# [24] = tested on: S. aureus ATCC BAA-1707 (MRSA); assay: MIC (broth microdilution or agar dilution, CLSI); settings: Staphylococcus aureus; S. aureus ATCC BAA-1707 (MRSA); read-out: MIC
# Summary of the method: as §2
# [25] = tested on: E. faecalis ATCC 29212; assay: MIC (broth microdilution or agar dilution, CLSI)
# Summary of the method: as §2
# [26] = tested on: E. faecalis VRE; assay: MIC (CLSI), third E. faecalis VRE line of Table 4; settings: Enterococcus faecalis; E. faecalis VRE (Table 4, third VRE line); read-out: MIC
# Description: as §3
# [27] = tested on: E. faecalis VRE; assay: MIC (CLSI), second E. faecalis VRE line of Table 4; settings: Enterococcus faecalis; E. faecalis VRE (Table 4, second VRE line); read-out: MIC
# Description: as §3
# [28] = tested on: P. aeruginosa ΔAmex OprM; assay: MIC (broth microdilution or agar dilution, CLSI); settings: Pseudomonas aeruginosa
# Summary of the method: as §1
# [29] = tested on: B. fragilis ATCC 25285; assay: MIC (broth microdilution or agar dilution, CLSI); settings: B. fragilis ATCC 25285
# Summary of the method: as §1
# [30] = tested on: C. scindens ATCC 35704; assay: MIC (broth microdilution or agar dilution, CLSI); settings: C. scindens ATCC 35704
# Summary of the method: as §1
# [31] = tested on: E. coli MP-74 LptD mutant; assay: MIC (broth microdilution or agar dilution, CLSI); settings: E. coli MP-74 LptD mutant
# Summary of the method: as §1
# [32] = tested on: C. difficile ATCC 700057; assay: MIC (broth microdilution or agar dilution, CLSI); settings: C. difficile ATCC 700057
# Summary of the method: as §1
# [33] = tested on: S. aureus BAA 977 iErmA; assay: microbe, parasite or virus in culture; settings: S. aureus BAA 977 iErmA
# Summary of the method: as §2
# [34] = tested on: S. aureus MP-549 msrA; assay: microbe, parasite or virus in culture; settings: S. aureus MP-549 msrA
# Summary of the method: as §2
# [35] = tested on: E. coli MP-9 ΔTolC; assay: MIC (broth microdilution or agar dilution, CLSI); settings: E. coli MP-9 ΔTolC
# Summary of the method: as §2
# [36] = tested on: H. influenzae ATCC 49247; assay: MIC (broth microdilution or agar dilution, CLSI); settings: H. influenzae ATCC 49247
# Summary of the method: as §2
# [37] = tested on: K. pneumoniae ATCC 10031; assay: MIC (broth microdilution or agar dilution, CLSI); settings: K. pneumoniae ATCC 10031
# Summary of the method: as §2
# [38] = tested on: S. aureus MMX 3035 cErmA; assay: MIC (broth microdilution or agar dilution, CLSI); settings: S. aureus MMX 3035 cErmA
# Summary of the method: as §2
# [39] = Streptococcus pneumoniae, MMX3031CMEFA, read-out: MIC
# [40] = Streptococcus pneumoniae, MMX3028CERMB, read-out: MIC
# [41] = Enterococcus faecalis, read-out: MIC
# [42] = Streptococcus pyogenes, read-out: MIC
Compound,MIC [2],MIC [3],MIC [4],MIC [6],MIC [7],MIC [9],MIC [10],"MIC [11, 39]","MIC [13, 40]",MIC [14],"MIC [17, 41]",MIC [19],"MIC [20, 42]",MIC [22],MIC [24],MIC [26],MIC [27],MIC [28],other results
"CS[C@H]1O[C@H]([C@H](NC(=O)[C@H]2NC[C@@H]3C[C@H](CC(C)C)CCO[C@H]32)[C@H](C)Sc2ccc(CN(C)C)cc2)[C@H](O)[C@H](O)[C@H]1O [FSA-09-04-092, (4S,5aS,8S,8aR)-N-((1S,2S)-2-((4-((Dimethylamino)methyl)phenyl)thio)-1-((2R,3R,4S,5R,6R)-3,4,5-trihydroxy-6-(methylthio)tetrahydro-2H-pyran-2-yl)propyl)-4-isobutyloctahydro-2H-oxepino[2,3-c]pyrrole-8-carboxamide]",0.25 µg/mL,2 µg/mL,4 µg/mL,64 µg/mL,4 µg/mL,4 µg/mL,0.06 µg/mL,0.06 µg/mL,0.125 µg/mL,16 µg/mL,1 µg/mL,8 µg/mL,0.25 µg/mL,16 µg/mL,0.25 µg/mL,4 µg/mL,8 µg/mL,,"MIC [1]: 4 µg/mL; MIC [5]: 1 µg/mL; MIC [8]: 0.25 µg/mL; MIC [12]: 0.5 µg/mL; MIC [15]: 8 µg/mL; MIC ([16]; Staphylococcus aureus, ATCC29213, S. aureus ATCC 29213, read-out: MIC): 0.5 µg/mL; MIC ([18]; Streptococcus pneumoniae, ATCC49619, S. pneumoniae ATCC 49619, read-out: MIC): 0.25 µg/mL; MIC ([21]; Escherichia coli, ATCC25922, read-out: MIC): 4 µg/mL; MIC ([23]; Streptococcus pyogenes, ATCC19615, S. pyogenes ATCC 19615, read-out: MIC): 0.25 µg/mL; MIC ([25]; Enterococcus faecalis, ATCC29212, E. faecalis ATCC 29212, read-out: MIC): 0.25 µg/mL"
C=CC[C@@H]1CCO[C@@H]2[C@H](CN[C@@H]2C(=O)N[C@H]([C@H](C)Cl)[C@H]2OC(SC)[C@H](O)[C@H](O)C2O)C1 (stereo partly shown) [FSA-10-09-045],0.06 µg/mL,16 µg/mL,8 µg/mL,> 128 µg/mL,8 µg/mL,16 µg/mL,0.06 µg/mL,0.06 µg/mL,0.5 µg/mL,8 µg/mL,8 µg/mL,8 µg/mL,1 µg/mL,16 µg/mL,0.06 µg/mL,8 µg/mL,32 µg/mL,2 µg/mL,
CSC1O[C@H]([C@H](NC(=O)[C@H]2NC[C@@H]3C[C@@H](C(C)C)CCO[C@H]32)[C@H](C)Cl)C(O)[C@@H](O)[C@H]1O (stereo partly shown) [FSA-512078a],,,,,,,,,,,,,,,,,,,MIC [29]: 1 µg/mL; MIC [30]: 0.25 µg/mL; MIC [31]: 4 µg/mL; MIC [32]: 1 µg/mL; MIC [33]: 0.06 µg/mL; MIC [34]: 0.06 µg/mL; MIC [11]: 0.03 µg/mL; MIC [13]: 8 µg/mL; MIC [35]: 2 µg/mL; MIC ([16]; S. aureus ATCC 29213): 0.06 µg/mL; MIC [17]: 32 µg/mL; MIC ([18]; S. pneumoniae ATCC 49619): 0.03 µg/mL; MIC [20]: 8 µg/mL; MIC [21]: 32 µg/mL; MIC [36]: 8 µg/mL; MIC ([23]; S. pyogenes ATCC 19615): 0.02 µg/mL; MIC [37]: 1 µg/mL; MIC ([25]; E. faecalis ATCC 29212): 0.25 µg/mL; MIC [38]: 32 µg/mL
CCC[C@@H]1CCO[C@@H]2[C@H](CN[C@@H]2C(=O)N[C@H]([C@H](C)Cl)[C@H]2OC(SC)[C@H](O)[C@H](O)C2O)C1 (stereo partly shown) [FSA-10-09-051],0.06 µg/mL,8 µg/mL,4 µg/mL,> 128 µg/mL,8 µg/mL,8 µg/mL,0.06 µg/mL,0.06 µg/mL,0.25 µg/mL,8 µg/mL,4 µg/mL,4 µg/mL,0.5 µg/mL,8 µg/mL,0.06 µg/mL,2 µg/mL,8 µg/mL,2 µg/mL,
